Test results taken from patent US7312248B2, “Control of parasites in animals by the use of novel trifluoromethanesulfonanilide oxime ether derivatives” (Schering-Plough Animal Health Corporation, priority 2004, dated 2007).

System: Brown Dog Tick (Rhipicephalus sanguineus)
Test: Dose response protocol for topical application on brown dog ticks (LD50)
Type: in vivo
Conditions: 24 h mortality

Row | Structure (SMILES) | R. sanguineus LD50 [μg/tick]
1 | CC/C(=N\OCc1ccc(Cl)cc1)c1cc(Cl)ccc1NS(=O)(=O)C(F)(F)F [Compound 11, N-{4-chloro-2-[1-(4-chlorobenzyloxyimino)propyl]phenyl}trifluoromethanesulfonamide] | 2.5
2 | CC/C(=N\OCc1ccc(C(F)(F)F)cc1)c1cc(Cl)ccc1NS(=O)(=O)C(F)(F)F [Compound 9] | 2.7
